What follows are compounds tested on HSV-1 (assay: HSV-1 infection of Vero 76 cells, viral DNA detected by hybridization capture (chemiluminescence)). Details: Human alphaherpesvirus 1; HSV-1 in Vero 76 cells, MOI=0.001, compounds incubated 40–48 hours at 37° C.; read-out: IC50.
Type: cell-based
Source text: In the following example, “MEM” means Minimal Essential Media; “FBS” means Fetal Bovine Serum; “NP40” and “Igepal” are detergents; “MOI” means Multiplicity of Infection; “NaOH” means sodium hydroxide; “MgCl2” means magnesium chloride; “dATP” means deoxyadenosine 5′ triphosphate; “dUTP” means deoxyuridine 5′ triphosphate; “dCTP” means dexoxycytidine 5′ triphosphate; “dGTP” means deoxyguanosine 5′ triphosphate; “GuSCN” means Guanidinium thiocyanate; “EDTA” means ethylenediamine tetraacetic acid; “TE” means Tris-EDTA; “SCC” means sodium chloride/sodium citrate; “APE” means a solution of ammonia acetate, ammonia phosphate, EDTA; “PBS” means phosphate buffered saline; and “HRP” means horseradish peroxidase.
Vero 76 cells were maintained in MEM with Earle's salts, L-glutamine, 8% FBS (Hyclone, A-1111-L) and 100 units/mL Penicillin-100 μg/mL Streptomycin. For assay conditions, FBS was reduced to 2%. Cells are seeded into 96-well tissue culture plates at a density of 5×10^4 cells/well after being incubated for 45 min at 37° C. in the presence of HSV-1 or HSV-2 (MOI=0.001). Test compounds are added to the wells and the plates are incubated at 37° C. for 40–48 hours. Cell lysates are prepared as follows: media was removed and replaced with 150 μL/well 0.2 N NaOH with 1% Igepal CA 630 or NP-40. Plates were incubated up to 14 days at room temperature in a humidified chamber to prevent evaporation.
For the detection probe, a gel-purified, digoxigenin-labeled, 710-bp PCR fragment of the HSV UL-15 sequence was utilized. PCR conditions included 0.5 μM primers, 180 μM dTTP, 20 μM dUTP-digoxigenin (Boehringer Mannheim 1558706), 200 μM each of dATP, dCTP, and dGTP, 1×PCR Buffer II (Perkin Elmer), 2.5 mM MgCl2, 0.025 units/μL of AmpliTaq Gold polymerase (Perkin Elmer), and 5 ng of gel-purified HSV DNA per 100 μL Extension conditions were 10 min at 95° C., followed by 30 cycles of 95° C. for 1 min, 55° C. for 30 sec, and 72° C. for 2 min. The amplification was completed with a 10-min incubation at 72° C. Primers were selected to amplify a 728 bp probe spanning a section of the HSV1 UL15 open reading frame (nucleotides 249–977). Single-stranded transcripts were purified with Promega M13 Wizard kits. The final product was mixed 1:1 with a mixture of 6 M GuSCN, 100 mM EDTA and 200 μg/mL herring sperm DNA and stored at 4° C.
The capture DNA plasmid (HSV UL13 region in pUC) was linearized by cutting with Xba I, denatured for 15 min at 95° C. and diluted immediately into Reacti-Bind DNA Coating Solution (Pierce, 17250, diluted 1:1 with TE buffer, pH 8) at 1 ng/μL 75 μL/well were added to Corning (#3922 or 9690) white 96-well plates and incubated at room temperature for at least 4 hrs before washing twice with 300 μL/well 0.2×SSC/0.05% Tween-20 (SSC/T buffer). The plates were then incubated overnight at room temperature with 150 μL/well 0.2 N NaOH, 1% IGEPAL and 10 μg/mL herring sperm DNA.
Twenty-seven (27) μL of cell lysate was combined with 45 μL of hybridization solution (final concentration: 3M GuSCN, 50 mM EDTA, 100 μg/ml salmon sperm DNA, 5×Denhardt's solution, 0.25×APE, and 5 ng of the digoxigenin-labeled detection probe). APE is 1.5 M NH4-acetate, 0.15 M NH4H2 phosphate, and 5 mM EDTA adjusted to pH 6.0. Mineral oil (50 μL) was added to prevent evaporation. The hybridization plates were incubated at 95° C. for 10 minutes to denature the DNA, then incubated at 42° C. overnight. The wells were washed 6× with 300 μL/well SSC/T buffer then incubated with 75 μL/well anti-digoxigenin-HRP-conjugated antibody (Boehringer Mannheim 1207733, 1:5000 in TE) for 30 min at room temperature. The wells were washed 6× with 300 μL/well with PBS/0.05% Tween-20 before 75 μL/well SuperSignal LBA substrate (Pierce) was added. The plates were incubated at room temperature for 30 minutes and chemiluminescence was measured in a Wallac Victor reader.
The following results were obtained for HSV-1.

IC50	SMILES
300 nM	COc1ccc(-c2nn3c(NC4CCCC4)cccc3c2-c2ccnc(NC3CCCC3)n2)cc1 [Example 1, N-Cyclopentyl-3-[2-(cyclopentylamino)-4-pyrimidinyl]-2-(4-methoxyphenyl)-pyrazolo[1,5-a]pyridin-7-amine]
600 nM	COc1ccc(-c2nn3c(N4CCCC4)cccc3c2-c2ccnc(NC3CCCC3)n2)cc1 [Example 2, N-Cyclopentyl-4-[2-(4-methoxyphenyl)-7-(1-pyrrolidinyl)pyrazolo[1,5-a]pyridin-3-yl]-2-pyrimidinamine]
5000 nM	COc1ccc(-c2nn3c(N4CCCC4)cccc3c2-c2ccnc(N)n2)cc1 [Example 3, 4-[2-(4-Methoxyphenyl)-7-(1-pyrrolidinyl)pyrazolo[1,5-a]pyridin-3-yl]-2-pyrimidinamine]
1000 nM	Oc1ccc(-c2nn3c(NC4CCCC4)cccc3c2-c2ccnc(NC3CCCC3)n2)cc1 [Example 4, 4-{7-(Cyclopentylamino)-3-[2-(cyclopentylamino)-4-pyrimidinyl]pyrazolo-[1,5-a]pyridin-2-yl}phenol]
2000 nM	Oc1ccc(-c2nn3c(N4CCCC4)cccc3c2-c2ccnc(NC3CCCC3)n2)cc1 [Example 5, 4-[3-[2-(Cyclopentylamino)-4-pyrimidinyl]-7-(1-pyrrolidinyl)pyrazolo[1,5-a]pyridin-2-yl]phenol]
5000 nM	Nc1nccc(-c2c(-c3ccc(O)cc3)nn3c(N4CCCC4)cccc23)n1 [Example 6, 4-[3-(2-Amino-4-pyrimidinyl)-7-(1-pyrrolidinyl)pyrazolo[1,5-a]pyridin-2-yl]phenol]
150 nM	C=CCOc1ccc(-c2nn3c(NC4CCCC4)cccc3c2-c2ccnc(NC3CCCC3)n2)cc1 [Example 7, 2-[4-(Allyloxy)phenyl]-N-cyclopentyl-3-[2-(cyclopentylamino)-4-pyrimidinyl]pyrazolo[1,5-a]pyridin-7-amine]
3000 nM	CCOC(=O)COc1ccc(-c2nn3c(NC4CCCC4)cccc3c2-c2ccnc(NC3CCCC3)n2)cc1 [Example 8, Ethyl (4-{7-(cyclopentylamino)-3-[2-(cyclopentylamino)-4-pyrimidinyl]-pyrazolo[1,5-a]pyridin-2-yl}phenoxy)acetate]
300 nM	c1cc(NC2CCCC2)n2nc(-c3ccc(OCC4CC4)cc3)c(-c3ccnc(NC4CCCC4)n3)c2c1 [Example 11, N-Cyclopentyl-3-[2-(cyclopentylamino)-4-pyrimidinyl]-2-[4-(cyclopropyl-methoxy)phenyl]pyrazolo[1,5-a]pyridin-7-amine]
2000 nM	c1cc(NC2CCCC2)n2nc(-c3ccc(OCC4CCC4)cc3)c(-c3ccnc(NC4CCCC4)n3)c2c1 [Example 12, 2-[4-(Cyclobutylmethoxy)phenyl]-N-cyclopentyl-3-[2-(cyclopentylamino)-4-pyrimidinyl]pyrazolo[1,5-a]pyridin-7-amine]
1000 nM	c1ccc(Oc2ccc(-c3nn4c(NC5CCCC5)cccc4c3-c3ccnc(NC4CCCC4)n3)cc2)cc1 [Example 13, N-Cyclopentyl-3-[2-(cyclopentylamino)-4-pyrimidinyl]-2-(4-phenoxyphenyl)pyrazolo[1,5-a]pyridin-7-amine]
1000 nM	CCCCNc1nccc(-c2c(-c3ccc(-c4ccccc4)cc3)nn3c(NCCCC)cccc23)n1 [Example 15, 2-[1,1′-Biphenyl]-4-yl-N-butyl-3-[2-(butylamino)-4-pyrimidinyl]pyrazolo-[1,5-a]pyridin-7-amine]
1000 nM	CCCCNc1nccc(-c2c(-c3ccc(N)cc3)nn3c(NCCCC)cccc23)n1 [Example 16, N-{4-[2-(4-Aminophenyl)-7-(butylamino)pyrazolo[1,5-a]pyridin-3-yl]-2-pyrimidinyl}-N-butylamine]
1500 nM	CCCCNc1nccc(-c2c(-c3ccc(NC4CCCCC4)cc3)nn3c(NCCCC)cccc23)n1 [Example 17, N-Butyl-3-[2-(butylamino)-4-pyrimidinyl]-2-[4-(cyclohexylamino)phenyl]-pyrazolo[1,5-a]pyridin-7-amine]
9000 nM	C=C(C)c1ccc(-c2nn3c(NCCCC)cccc3c2-c2ccnc(NCCCC)n2)cc1 [Example 18, N-Butyl-3-[2-(butylamino)-4-pyrimidinyl]-2-(4-isopropenylphenyl)-pyrazolo[1,5-a]pyridin-7-amine]
500 nM	CCCCNc1nccc(-c2c(-c3ccc(Nc4ccccc4)cc3)nn3c(NCCCC)cccc23)n1 [Example 19, 2-(4-Anilinophenyl)-N-butyl-3-[2-(butylamino)-4-pyrimidinyl]pyrazolo[1,5-a]pyridin-7-amine]
16000 nM	CCCCNc1nccc(-c2c(-c3ccc(Nc4ccccc4)cc3)nn3c(N(CCCC)c4ccccc4)cccc23)n1 [Example 20, 2-(4-Anilinophenyl)-N-butyl-3-[2-(butylamino)-4-pyrimidinyl]-N-phenylpyrazolo[1,5-a]pyridin-7-amine]
15000 nM	CCCCNc1nccc(-c2c(-c3ccc(N(CC4CC4)CC4CC4)cc3)nn3c(NCCCC)cccc23)n1 [Example 21, 2-{4-[Bis(cyclopropylmethyl)amino]phenyl}-N-butyl-3-[2-(butylamino)-4-pyrimidinyl]pyrazolo[1,5-a]pyridin-7-amine]
600 nM	CCCCNc1nccc(-c2c(-c3ccc(NCC4CC4)cc3)nn3c(NCCCC)cccc23)n1 [Example 22, N-butyl-3-[2-(butylamino)-4-pyrimidinyl]-2-{4-[(cyclopropylmethyl)amino]phenyl}pyrazolo[1,5-a]pyridin-7-amine]
2000 nM	CCCCNc1nccc(-c2c(-c3ccc(N(C)C)cc3)nn3c(NCCCC)cccc23)n1 [Example 23, N-Butyl-3-[2-(butylamino)-4-pyrimidinyl]-2-[4-(dimethylamino)phenyl]-pyrazolo[1,5-a]pyridin-7-amine]
900 nM	Brc1ccccc1-c1nn2c(NC3CCCC3)cccc2c1-c1ccnc(NC2CCCC2)n1 [Example 24, 2-(2-Bromophenyl)-N-cyclopentyl-3-[2-(cyclopentylamino)-4-pyrimidinyl]pyrazolo[1,5-a]pyridin-7-amine]
200 nM	Brc1cccc(-c2nn3c(NC4CCCC4)cccc3c2-c2ccnc(NC3CCCC3)n2)c1 [Example 25, 2-(3-Bromophenyl)-N-cyclopentyl-3-[2-(cyclopentylamino)-4-pyrimidinyl]pyrazolo[1,5-a]pyridin-7-amine]
600 nM	Brc1cccc(-c2nn3c(N4CCCC4)cccc3c2-c2ccnc(NC3CCCC3)n2)c1 [Example 26, 4-[2-(3-Bromophenyl)-7-(1-pyrrolidinyl)pyrazolo[1,5-a]pyridin-3-yl]-N-cyclopentyl-2-pyrimidinamine]

SMILES	IC50
CCCCOc1ccc(-c2nn3c(NC4CCCC4)cccc3c2-c2ccnc(NC3CCCC3)n2)cc1 [Example 9, 2-(4-Butoxyphenyl)-N-cyclopentyl-3-[2-(cyclopentylamino)-4-pyrimidinyl]-pyrazolo[1,5-a]pyridin-7-amine]	3000 nM
CC(C)COc1ccc(-c2nn3c(NC4CCCC4)cccc3c2-c2ccnc(NC3CCCC3)n2)cc1 [Example 10, N-Cyclopentyl-3-[2-(cyclopentylamino)-4-pyrimidinyl]-2-(4-isobutoxyphenyl)pyrazolo [1,5-a]pyridin-7-amine]	900 nM

— patent US7153855B2, “Pyrazolopyridinyl pyrimidine therapeutic compounds” (SmithKline Beecham Corporation, priority 2001, dated 2006)
